Consider three sequences from PMC3154333, “Specificity of RSG-1.2 Peptide Binding to RRE-IIB RNA Element of HIV-1 over Rev Peptide Is Mainly Enthalpic in Origin” (PLoS ONE, 2011).

“And” between values parts separate entries of the source, which are not always exact repeats. Equal values may be shown once. “Also recorded” adds a separate entry of the source.

The subject of assay [1] is RRE-IIB RNA. Nature of the assay: Isothermal titration calorimetry (ITC) of peptide binding to RRE-IIB. The following applies: for N1 / N2: ITC stoichiometry; for N1 / ΔH1 (binding enthalpy ΔH) / TΔS1: first site; for N1 / N2 / ΔH1 (binding enthalpy ΔH) / Ka2 / TΔS2 / ΔH2 / TΔS1: two-site model; for N2 / Ka2 / TΔS2 / ΔH2: second (low affinity) site; for ΔH1 (binding enthalpy ΔH): 350 µM peptide into 10 µM RRE-IIB, corrected for heat of dilution, pH 7.5, 50 mM NaCl; for Ka1 / TΔS1: RSG-1.2 mutants; for Ka1: high affinity site, model for two set of binding sites, 10 mM sodium cacodylate, 0.1 mM EDTA, 50 mM NaCl, ± = SD of data from fitted curve; for TΔS1: derived from fits of ITC profiles. Further details: species or system HIV-1. The method, then: (§1) Fluorescence labeled RNA having 2-Aminopurine (2-AP) at U72 position of RRE-IIB was obtained from Ocimum Biosolutions Ltd. Netherlands. All the stock solutions were prepared in Milli-Q water. Other reagents were commercially available and were of analytical grade quality and used without any further purification. All the experiments were performed using 10 mM sodium cacodylate buffer containing 0.1 mM EDTA and 50 mM NaCl at pH 7.5.
(§2) Isothermal titration calorimetry measurements were conducted at 25°C on a Microcal VP-ITC (Microcal, Inc.; Northampton MA). Titration of RRE-IIB with Rev as well as RSG-1.2 were done by injecting 4 µL aliquots of 350 µM peptide from a 250 µL rotating syringe (350 rpm) into an isothermal sample chamber containing 1.5 mL of 10 µM RRE-IIB solution. Each experiment of this type was accompanied by the corresponding control experiment in which 350 µM peptide were injected into a solution of buffer alone. The duration of each injection was 8 s and the delay between the injections was 300 s, the initial delay prior to the first injection was 200 s. Each injection generated a heat burst curve (microcalories/second vs. seconds) and the area under each curve was determined by integration [using origin version 7.0 software (Microcal, Inc.; Northampton, MA)] to obtain the measure of heat associated with that injection. The buffer corrected ITC profiles for the binding of Rev and RSG-1.2 were fit with a model for two set of binding site. The net enthalpy change for RRE-IIB stem loop interaction with Rev and RSG-1.2 were determined by subtraction of the heat of dilution.

The subject of assay [2] is RRE-IIB RNA. Nature of the assay: Temperature dependent ITC (heat capacity change). The format is binding, HIV-1. The following applies: ITC at 10, 20, 25 and 35°C, pH 7.5. The protocol:
as §2
Heat capacity changes (ΔCp), that accompany the peptide binding to RNA can be determined by performing temperature dependent ITC experiments under same buffer conditions. […]

In the next assay the test system is 2-AP labeled RRE-IIB RNA. The experiment in a line: Fluorescence titration of 2-AP labeled RRE-IIB with peptides. The format is binding, HIV-1. The following applies: pH 7.5, 25°C. The protocol: as §1
Steady state fluorescence spectra were collected using Xe 900 lamp of Edinburgh instruments Spectrofluorometer equipped with thermoelectrically controlled cell holders. The excitation of the sample was done at 320 nm wavelength and fluorescence spectra were collected from 340 nm to 450 nm. The excitation as well as emission slit width were kept at 3 nm. A quartz cell of 1 cm path length, transparent from four sides, was used. All the experiments were conducted at 25°C. RNA concentration was fixed at 0.1 µM and the peptide concentration was varied from 0–0.3 µM. The buffer solution contained 10 mM sodium cacodylate buffer, 0.1 mM EDTA and 50 mM NaCl at pH 7.5 and 25°C. The changes in the fluorescence intensity at 370 nm were monitored as a function of increase in peptide concentration. For data analysis, the observed fluorescence intensity was considered as the sum of the weighted contributions from a peptide bound and an unbound RNA form. [drawing 1] (1)
Where F corresponds to the observed fluorescence intensity at each titrant concentration, F0 and Fb are the respective fluorescence intensities of initial and final states of titration, α is the mole fractions of RNA in bound form. Assuming 1∶1 stoichiometry for the interaction, it can be shown that: [drawing 2] (2)
Where Ka is the association constant, [R0] is the total RNA concentration and [Lt] is the added peptide concentration. From Equations (1) and (2), it can be shown that: [drawing 3] (3)
Where ΔF = F – F0 and ΔFmax = Fmax – F0
The free energy of binding was calculated from the standard relation ΔG = -RTlnKa where R is the universal gas constant and T is the absolute temperature in Kelvin.
Fluorescence spectroscopy is a useful tool for determining binding constants of two interacting partners. We employed this tool for determining binding affinity of Rev and RSG-1.2 with the RRE-IIB RNA stem loop structure. In order to carry out fluorescence titration, RRE-IIB RNA was fluorescently labeled by incorporating 2-Aminopurine (2-AP) at position U72. […] All the fluorescence titrations were performed using 10 mM sodium cacodylate buffer containing 0.1 mM EDTA and 50 mM NaCl at pH 7.5 and at 25°C. […] Normalized change in fluorescence intensity at 370 nm was plotted against molar concentration of peptide. […]

In assay [3] the test system is RRE-IIB RNA. The experiment in a line: CD spectroscopy of RRE-IIB with peptides. The format is binding, HIV-1. The following applies: 5 µM RNA, pH 7.5, 25°C. The protocol:
Circular dichroism (CD) spectra were recorded on a Jasco spectropolarimeter (model J815, Japan) equipped with a thermoelectrically controlled cell holder. The cuvette used for acquiring spectra was of 1 cm in path length. CD spectra were recorded from 350 nm to 200 nm; with accumulation of 3 and averaged at 25°C. The buffer solution contained 10 mM sodium cacodylate buffer, 0.1 mM EDTA and 50 mM NaCl at pH 7.5. In a titration experiment RNA concentration was fixed at 5 µM and the peptides concentration varied from 0–25 µM.

Assay [4] has as its system RRE-IIB RNA. Nature of the assay: Temperature dependent UV melting of RRE-IIB with peptides. The class given is binding, HIV-1. The following applies: pH 7.5. The method, then: Temperature dependent UV melting experiments were carried out using a Cary 100 (Varian) Spectrophotometer equipped with thermoelectrically controlled cell holder. A quartz cell of 1cm path length was used for all absorbance studies. Temperature dependent absorption spectra were obtained at 260 nm with rate of 0.5°C/min. increase in temperature, from 40 to 95°C. In these experiments the concentration of RNA was kept 1 µM and peptide concentration was increased from 0–3 µM. The buffer solution contained 10 mM sodium cacodylate buffer, 0.1 mM EDTA and 50 mM NaCl at pH 7.5. For each optically detected transition, the melting temperature (Tm) was determined using previously described methods.

In the assay with RRE-IIB RNA [1] (pH 7.5, 25°C), DRRRRGSRPSGAERKRRRAAAA [R15K] had an N1 of 1.6, an N2 of 1.6 and a TΔS1 of 1.3 ± 0.2 kcal/mol. Also, the “ΔH1 (binding enthalpy ΔH)” value in the assay on RRE-IIB RNA [1] (ITC, 25°C) is -8.7 ± 0.1 kcal/mol. In addition, in the assay with RRE-IIB RNA [1] (ITC, pH 7.5, 25°C), the Ka1 is 2.4±0.7 M^−1 × 10^7, the Ka2 came out at 7.0±0.2 M^−1 × 10^5, the TΔS2 is 5.5 ± 0.1 kcal/mol and the ΔH2 is -2.4 ± 0.3 kcal/mol.
In the assay on RRE-IIB RNA [1] (pH 7.5, 25°C), DRRRRGSRPSGAERRDRRAAAA [R15D] returned an N1 of 1.5, an N2 of 1.5 and a TΔS1 of 6.2 ± 0.3 kcal/mol. In the assay with RRE-IIB RNA [1] (ITC, 25°C), the “ΔH1 (binding enthalpy ΔH)” value was -3.9 ± 0.1 kcal/mol. In the assay on RRE-IIB RNA [1] (ITC, pH 7.5, 25°C), the Ka1 worked out at 2.9±0.4 M^−1 × 10^7, the Ka2 came out at 14.2±0.2 M^−1 × 10^5, the TΔS2 worked out at 7.3 ± 0.4 kcal/mol and the ΔH2 is -1.0 ± 0.1 kcal/mol.
On to “DTRQARRNRRRRWRERQRAAAAR [Rev, minimal arginine rich Rev peptide of HIV-1 ([…])]”, for which, in the assay with RRE-IIB RNA [2], the “change in heat capacity (in words)” value was “essentially no change in heat capacity” and the “temperature dependence of binding enthalpy” value is listed as “does not show any change in enthalpy of binding; also recorded: no change in binding enthalpy”. The “change in fluorescence intensity of 2-AP RRE-IIB” value in the assay with 2-AP labeled RRE-IIB RNA (0.1 µM RNA, 370 nm) is “fluorescence intensity increased upon addition of peptide”. Moreover, the “association constant Ka” value in the assay on 2-AP labeled RRE-IIB RNA (2-AP at U72, 0.1 µM RNA, 370 nm, 10 mM sodium cacodylate, 0.1 mM EDTA, 50 mM NaCl, fit with equation 3 (1∶1)) is 3.1±0.4×10^7 M^−1. For the same sequence, the Ka1 in the assay with 2-AP labeled RRE-IIB RNA (fluorescence binding studies (footnote b), 2-AP at U72, 0.1 µM RNA, peptide 0–0.3 µM, ex 320 nm/em 370 nm, 10 mM sodium cacodylate, 0.1 mM EDTA, 50 mM NaCl, 1∶1 fit) is recorded as 3.1±0.4 ^b M^−1 × 10^7. Further, the “ΔG (Gibb's free energy of binding)” value in the assay with 2-AP labeled RRE-IIB RNA (ΔG = -RTlnKa, fluorescence Ka) is -10.2 ± 0.1 kcal/mol. For the same sequence, the “ΔH1 (binding enthalpy ΔH)” value in the assay on RRE-IIB RNA [1] (ITC, 25°C) was “≈ 0 kcal/mol and 0 kcal/mol”. Besides, the “heat changes / enthalpy of binding (in words)” value with RRE-IIB RNA [1] (ITC, 25°C, pH 7.5) is “small; also recorded: almost zero enthalpy of interaction; also recorded: negligible enthalpy”. In the assay on RRE-IIB RNA [1] (calculated by ΔG = ΔH − TΔS from fluorescence Ka and ITC ΔH (footnote c), pH 7.5, 25°C), the “TΔS1 (TΔS)” value is 10.2±0.2 kcal/mol and 10.2±0.2 ^c kcal/mol. For the same sequence, the TΔS in the assay on RRE-IIB RNA [1] (calculated by ΔG = ΔH − TΔS, 25°C, pH 7.5) was 10.2 ± 0.2 kcal/mol. The thermodynamic driving force entry with RRE-IIB RNA [1] (from ΔH and TΔS, 25°C, pH 7.5) was “essentially entropically driven; also recorded: exclusively entropy driven”. Besides, the “CD signal of RRE-IIB at 240 nm and 210 nm” value in the assay on RRE-IIB RNA [3] (peptide 0–25 µM (up to 5∶1), 10 mM sodium cacodylate, 50 mM NaCl, 0.1 mM EDTA) was “became more negative at 240 nm and 210 nm”. In addition, the “CD signal of RRE-IIB at 265 nm” value in the assay with RRE-IIB RNA [3] (up to 5∶1 peptide) is recorded as “no significant change was observed at 265 nm”. Also, the “ΔTm (increase in Tm of RRE-IIB; Tm of RNA alone 67.3°C)” value in the assay with RRE-IIB RNA [4] (peptide to RNA molar ratio 1∶1, 1 µM RNA, 260 nm, 0.5°C/min, 10 mM sodium cacodylate, 50 mM NaCl, 0.1 mM EDTA) amounted to 1 °C. Also, in the assay on RRE-IIB RNA [4] (ratios above 1∶1 (2∶1 and 3∶1), 1 µM RNA), the “change in Tm at higher peptide ratios” value is on record as “negligible changes were observed”.
